How the values were obtained:
Leptosphaeria maculans [1] = format: cell-based; conditions: read-out: NaD1 IC50
Aspergillus nidulans = format: cell-based; conditions: read-out: NaD1 IC50
Fov hyphae [2] = assay: Immunogold electron microscopy of NaD1-treated hyphae; format: cell-based, Fusarium oxysporum f. sp. vasinfectum; conditions: NaD1 (10 μM) for 2 h
Fov hyphae [3] = assay: Detection of reactive oxygen species (DHR123 oxidation) in response to NaD1; conditions: NaD1 0.1, 2 and 10 μM or 10 μM NaD1R&A
[4] = test system: Spodoptera frugiperda (Sf21) insect cells; assay: Effect of NaD1 on growth of insect cells
Protocol: The effect of NaD1 on the growth of Insect cells was determined as follows. Spodoptera frugiperda (Sf21) insect cells were grown to ˜90% confluency in Sf-900 II serum free media (Gibco™, 20 mL) in a 75 cm^2 tissue culture flask with a vented cap (Nunc). Cells were then split one in two with fresh media. Cell suspension was added to 96-well flat-bottomed microtitre plate wells (190 μL/well) and the cells were allowed to settle for 30 min prior to addition of NaD1 (10 μL) to give a final concentration of 0-10 μM. Growth was monitored until the cells reached confluency (˜48 h).

Fov [5] = conditions: transgenic cotton variety expressing NaD1, field trials; cited from earlier work
Leptosphaeria maculans [6] = assay: Fungal glasshouse bioassay of transgenic canola seedlings expressing NaD1; format: in vivo, canola (Brassica napus); conditions: NaD1 expressed in transgenic canola line CAT13.26
Verticillium dahliae [7] = format: cell-based; conditions: read-out: NaD1 IC50
Pichia pastoris = assay: Effect of NaD1 on growth of yeast strains
Protocol: (§1) The effect of NaD1 on the growth of the yeast strains Candida albicans, Pichia pastoris and Saccharomyces cerevisiae (from Department of Microbiology, La Trobe University) was assayed in microtitre plates. Cells were grown in YPD for 48 h, then counted using a haemocytometer and diluted to a concentration of 5×10^4 cells/mL in fresh YPD. Cell suspension (100 μL) containing 0-10 μM NaD1 was added to the wells of a 96-well microtitre plate and incubated for 48 h at 30° C. Growth was determined by measuring the optical density at 595 nm using a microtitre plate reader. Each test was performed in quadruplicate.

Saccharomyces cerevisiae = assay: Effect of NaD1 on growth of yeast strains
Protocol: as §1

Verticillium dahliae [8] = assay: Field trial of transgenic and non-transgenic cotton seed coated with fungicide in Verticillium dahliae infected soil; format: in vivo
[9] = test system: Fusarium oxysporum f. sp. vasinfectum (Fov); format: cell-based; conditions: read-out: NaD1 IC50
Thielaviopsis basicola = format: cell-based; conditions: read-out: NaD1 IC50
Fusarium graminearum [10] = assay: microbe, parasite or virus in culture; format: cell-based
Fusarium graminearum [11] = format: cell-based; conditions: defensin in combination with the triazole tebuconazole
F. graminearum hyphae [12] = format: cell-based, Fusarium graminearum; conditions: various concentrations of NaD1
Escherichia coli = assay: Effect of NaD1 on bacterial growth; format: cell-based
filamentous fungi = format: cell-based; conditions: Fov, F. graminearum, F. oxysporum f. sp. dianthi and lycopersici, F. solani, F. pseudograminearum, C. heterostrophus, A. brassicola, G. graminis var. tritici, T. basicola, V. dahliae, A. nidulans, S. sclerotiorum, B. cinerea, L. maculans
Candida albicans = assay: Effect of NaD1 on growth of yeast strains
Protocol: as §1

Fov [13] = assay: Effect of metal ions (CaCl2, MgCl2) on NaD1 activity against Fov; conditions: NaD1 10 μM; growth of Fov
Protocol: The activity of NaD1 against Fov was examined as described with varying concentrations of CaCl2 (0.1, 0.2, 0.5, 1.0 and 2.0 μM) or MgCl2 (1.0, 2.0, 10, 20 and 50 μM) present in the medium to determine the effects of divalent cations on NaD1 activity.

[14] = test system: Fusarium oxysporum f. sp. vasinfectum (Fov); assay: Growth cabinet bioassay of transgenic and non-transgenic cotton seed coated with fungicide in Fov infected soil; conditions: transgenic Coker expressing NaD1, seeds not coated with fungicide
Protocol: The assay was conducted as described for the glasshouse assay except for the following modifications.
Thirty seeds were planted for each test (transgenic and non-transgenic, coated and non-coated seed). Seed was sown directly into the containers, 24 seed per box in a 4×6 array. Six seed for each test were sown randomly in each box. Seeds were germinated for 7 days, conditions were 16 hours light at 30° C. and 8 hours dark at 15° C., with a ramp of 2° C. per hour. For the remainder of the experiment the conditions were 16 hours light at 25° C. and 8 hours dark at 10° C. with a ramp of 2° C. per hour.
Plants were grown for 4 weeks. Foliar symptom development was measured throughout the trial and disease score was determined by destructive sampling at the end of the trial. The following rating was used to determine the disease score: 0=no symptoms, 1=vascular browning to base of stem, 2=vascular browning to cotyledons, 3=vascular browning past cotyledons, 4=vascular browning to true leaves, 5=dead. The average disease score was an average for all seeds that germinated.

F. graminearum hyphae [15] = format: cell-based, Fusarium graminearum
Staphylococcus aureus = assay: Effect of NaD1 on bacterial growth; format: cell-based
[16] = test system: Fusarium oxysporum f. sp. vasinfectum (Fov); assay: Glasshouse bioassay of transgenic and non-transgenic cotton seed coated with fungicide in Fov infected soil; conditions: transgenic Coker expressing NaD1, seeds not coated with fungicide
Protocol: Cultures of Fov (isolate #24500 VCG 01111) were prepared in millet and incorporated into a soil mix. The infected soil was used to grow line 35.125.1 and non-transgenic Coker 315. The culture of Fov was prepared in ½ strength PDB (12 g/L potato dextrose) and grown for approximately one week at 26° C. The culture (5 to 10 mL) was used to infect autoclaved hulled millet which was then grown for 2 to 3 weeks at room temperature. The infected millet was incorporated into a pasteurized peat based soil mix at 1% (v/v), by vigorous mixing in a 200 L compost tumbler. The infected soil was transferred to plastic containers (10 L of mix per 13.5 L container).
The cotton seed was either non-coated or coated with the fungicide HEC5725 (active ingredient Fluoxastrobin, Bayer Crop Science, batch number 06529/0022) at a rate of 1 mL/kg of seed and allowed to dry prior to sowing. Water was added to facilitate even coating of the seed (62.5 mL/kg of seed). Untreated samples were treated with water only.
Forty eight seeds were planted for each test (transgenic and non-transgenic, coated and non-coated seed). Seed was sown directly into the containers, 12 seed per box in a 3×4 array. […]
Plants were grown for 7 weeks. Foliar symptom development was measured throughout the trial and disease score was determined by destructive sampling at the end of the trial. […]

Bacillus cereus = assay: Effect of NaD1 on bacterial growth; format: cell-based
Fov hyphae [17] = assay: Uptake of FITC-labeled dextrans into NaD1-treated hyphae
Protocol: The uptake of FITC-labeled dextran with NaD1 treatment of fungal hyphae was also studied. Fov hyphae were grown as described above and incubated with NaD1 (final concentration 0.1, 2, 10 or 50 μM) or an equivalent volume of water for 2 h at RT with gentle agitation. Hyphae were washed twice for 10 min with half-strength PDB to remove excess NaD1 before FITC dextrans of either 4 kDa (FD-4, Sigma-Aldrich) or 10 kDa (FD-10, Sigma-Aldrich) were added to a final concentration of 1 mg/mL. Hyphae were incubated for a further 30 min at RT and then washed twice with half strength PDB to remove excess dextrans. Fluorescence microscopy was used to visualize hyphae as described for SYTOX® green. A second assay was performed under the same conditions except the dextrans were added at the same time as NaD1.

[18] = test system: Fusarium oxysporum f. sp. vasinfectum (Fov); assay: Field trial of transgenic and non-transgenic cotton seed coated with fungicide in Fov infected soil; conditions: NaD1 expressed in transgenic line 35.125.1, coated or uncoated
Protocol: Seed of the two lines were either not coated with fungicide or were coated with the fungicide HEC5725 (active ingredient fluoxastrobin, Bayer CropScience, batch number 06529/0022) at a rate of 1 mL/kg of seed, or with the commercial seed coat fungicides Dynasty® (Registered Trademark) (active ingredients 75 g/L azoxystrobin, 37.5 g/L metalaxyl-m, 12.5 g/L fludioxonil, Syngenta) at a rate of 2 mL/kg of seed, Jockey® (Registered Trademark) (active ingredient 167 g/L fluquinconazole, Bayer CropScience) at a rate of 20 mL/kg of seed or Redigo® (Registered Trademark) (active ingredient 100 g/L prothioconazole, Bayer CropScience) at a rate of 1 mL/kg of seed. All seed (coated and uncoated with fungicide) was coated with the insecticide Gaucho® (Registered Trademark) (600 g/L imidacloprid, Bayer CropScience) to control early season thrips and aphids. Seed was prepared to ensure even coating of fungicide and insecticide and allowed to dry prior to sowing.
Plants were grown at a farm in the Darling Downs region of Queensland, Australia. Seed was mechanically planted into soil known to be infected with Fusarium oxysporum f.sp. vasinfectum. […]
Emergence and plant survival were recorded. […] Statistical significance of the interaction of plant line and mortality was calculated using a Pearson's chi-square test.

Pseudomonas aeruginosa = assay: Effect of NaD1 on bacterial growth; format: cell-based
Fov hyphae [19] = assay: Membrane permeabilization of Fov hyphae, SYTOX green uptake; format: cell-based, Fusarium oxysporum f. sp. vasinfectum
Fov hyphae [20] = assay: Isolation of NaD1 from treated hyphae (SDS-PAGE and immunoblotting of cytoplasmic contents)
Protocol: Fov hyphae were grown as described above prior to the addition of NaD1 (10 μM final concentration) to 1 mL of the culture. Samples (100 μL) were collected after 0, 5, 10, 30, 60, 90 and 120 min. Hyphae were collected by centrifugation (10 min, 10,000×g) and the supernatant was stored at −20° C. for analysis. Hyphae were washed (2×10 min) with KCl (0.6 M) to remove any ionically bound protein before they were resuspended in 50 mM CAPS buffer (pH 10.0) containing 10 mM DTT for 20 min. Hyphae were collected by centrifugation and the supernatant, containing cell wall proteins, was collected for analysis. The pellet (containing cells) was resuspended in water and the cells were lysed using glass beads (Sigma, 60 mg) and vortexing (3×10 min). Cellular debris was removed by centrifugation (16,000×g, 10 min) and the supernatant collected for analysis. All samples were then analyzed by SDS-PAGE and immunoblotting.

[21] = read-out: NaD1 IC50, growth inhibition

Protocol for HeLa cells: To examine the effect of NaD1 on mammalian cell growth, HeLa cells were seeded at 50% in Dulbecco's modified Eagle's medium (Gibco™-BRL) containing 10% (v/v) fetal calf serum with or without NaD1 (10 μM) at 37° C. under an atmosphere of 5% CO2 and 95% air in a 60 mm Petri dish. Cells were incubated for 48 h at 37° C. before they were stained with trypan blue to check viability and counted using a haemocytometer.

Substance: NaD1: plant defensin isolated from floral tissue of Nicotiana alata; also expressed in transgenic cotton line 35.125.1 and canola line CAT13.26 (RECKTESNTFPGICITKPPCRKACISEKFTDGHCSKILRRCLCTKPC; listed as Nicotiana alata)
- IC50 (Leptosphaeria maculans [1]): 800 nM
- IC50 (Aspergillus nidulans): 800 nM
- anti-NaD1 immunogold labeling of cytoplasm of granulated hyphae (Fov hyphae [2]): heavily labeled
- ROS production (DHR123 oxidation fluorescence) (Fov hyphae [3]): concentration-dependent increase in fluorescence
- toxicity to cells (HeLa cells; human HeLa cells): not toxic
- IC50 (HeLa cells; read-out: NaD1 IC50, growth inhibition, HeLa cells): > 10000 nM
- toxicity to cells ([4]; Spodoptera frugiperda Sf-21 insect cells): not toxic
- IC50 ([4]; read-out: NaD1 IC50, growth inhibition, Spodoptera frugiperda (Sf21)): > 10000 nM
- protection from pathological effects of Fov infection versus untransformed parent variety (Fov [5]): significantly protected
- average lesion size versus non-transgenic plants (Leptosphaeria maculans [6]; 10, 14 and 17 days after inoculation): significantly smaller
- disease scores versus non-transgenic RI64 (Leptosphaeria maculans [6]; Days 10, 14 and 17): significantly lower disease scores
- IC50 (Verticillium dahliae [7]): 750 nM
- effect on growth (Pichia pastoris): no effect
- IC50 (Pichia pastoris; [21]): > 10000 nM
- effect on growth (Saccharomyces cerevisiae): no effect
- IC50 (Saccharomyces cerevisiae; [21]): > 10000 nM
- yield versus untransformed Coker control (Verticillium dahliae [8]; transgenic line 35.125.1, seed coat not used): not significantly different
- uninfected plants at the end of the trial (Verticillium dahliae [8]; transgenic line expressing NaD1, non-coated seeds): 3.6%
- IC50 [9]: 1000 nM
- IC50 (Thielaviopsis basicola): 800 nM
- toxicity with Fusarium graminearum (Fusarium graminearum [10]; 0.24 μM NaD1 in the absence of fungicide): very low
- inhibition of fungal growth (Fusarium graminearum [10]; 0.5 μM defensin (alone)): about 13%
- synergy with tebuconazole (Io higher than Ee) (Fusarium graminearum [11]): Synergy
- SYTOX green uptake (F. graminearum hyphae [12]): increases with increasing concentrations of NaD1
- effect on growth (Escherichia coli; Gram-negative bacterial strain tested: Escherichia coli): no effect
- IC50 (Escherichia coli; growth inhibition, Escherichia coli): > 10000 nM
- growth of filamentous fungi (filamentous fungi): inhibit growth
- effect on growth (Candida albicans): no effect
- IC50 (Candida albicans; [21]): > 10000 nM
- CaCl2 concentration for complete inactivation of NaD1 (Fov [13]): < 2 mM
- MgCl2 concentration for complete inactivation of NaD1 (Fov [13]): 50 mM
- antagonism of Ca2+ relative to Mg2+ (Fov [13]): greater than 20 times
- mortality [14]: 7%
- permeabilization activity among the plant defensins (ATP release) (F. graminearum hyphae [15]; 1 μM defensin): highest permeabilization activity
- ATP release (F. graminearum hyphae [15]; 0.125 to 10 μM NaD1): concentration dependant release of ATP
- effect on growth (Staphylococcus aureus; Gram-positive bacterial strain tested: Staphylococcus aureus): no effect
- IC50 (Staphylococcus aureus; growth inhibition, Staphylococcus aureus): > 10000 nM
- mortality [16]: approximately half the mortality of the non-transgenic plants
- effect on growth (Bacillus cereus; Gram-positive bacterial strain tested: Bacillus cereus): no effect
- IC50 (Bacillus cereus; growth inhibition, Bacillus cereus): > 10000 nM
- entry of 10 kDa FITC-dextran (23 Å) into NaD1-treated hyphae (Fov hyphae [17]; even at very high concentrations of NaD1): excluded
- entry of 4 kDa FITC-dextran (14 Å) into NaD1-treated hyphae (Fov hyphae [17]; same NaD1 concentration that led to SYTOX green uptake): entered hyphae
- resistance to fungal infection relative to non-transgenic lines [18]: more resistant to fungal infection than the non-transgenic lines
- effect on growth (Pseudomonas aeruginosa; Gram-negative bacterial strain tested: Pseudomonas aeruginosa): no effect
- IC50 (Pseudomonas aeruginosa; growth inhibition, Pseudomonas aeruginosa): > 10000 nM
- permeabilization of hyphae (SYTOX green) (Fov hyphae [19]; 0.1, 2 or 10 μM NaD1 or 10 μM NaD1R&A): permeabilized hyphae
- NaD1 concentration up to which Vmax (maximum rate of fluorescence increase) rose linearly; saturable above (Fov hyphae [19]; SYTOX green uptake): 6.25 µM
- time after which fluorescence began to plateau (Fov hyphae [19]; SYTOX green uptake over time): 90 min
- NaD1 concentration up to which rate of permeabilization increased progressively (Fov hyphae [19]; above this (up to 50 μM) very little difference in kinetics): 3 µM
- lag time before permeabilization (Fov hyphae [19]; all NaD1 concentrations, SYTOX green uptake over time): around 20 min
- SYTOX green uptake / permeabilization (Fov hyphae [19]; at 0° C. (relative to 4° C.)): reduced even further
- SYTOX green uptake / permeabilization (Fov hyphae [19]; at 4° C.): only a small degree of permeabilization
- SYTOX green uptake / permeabilization (Fov hyphae [19]; at 10° C. (less than at 25° C.)): substantial uptake of SYTOX® green
- SYTOX green uptake (Fov hyphae [19]; lowest concentration, 0.1 μM NaD1): small amount of SYTOX® green uptake
- time up to which amount of NaD1 in cytoplasm increased (Fov hyphae [20]; decreased slightly afterwards): 60 min
- time at which NaD1 uptake into cytoplasm occurred (Fov hyphae [20]; immunoblotting of cytoplasmic contents): 20 min

Reference: patent US9848603B2, “Methods for protecting plants with antifungal compositions” (priority 2008, dated 2017)
